Measurements published in PMC7697888, “Comprehensive Set of Tertiary Complex Structures and Palmitic Acid Binding Provide Molecular Insights into Ligand Design for RXR Isoforms” (International Journal of Molecular Sciences, 2020).
Where two headings read alike, the source gives them in different places.

Legend:
[1] = biological target: T1, RXRα LBD (Homo sapiens, UniProt P19793); assay: HTRF-based SRC-1 co-activator recruitment assay; type: biochemical; conditions: for EC50: HTRF; for competition with bexarotene in SRC-1 recruitment: titrated in the presence of 0.3 µM bexarotene
T1 construct: peptide to the RXRα LBD (aa 225–462) was studied
T1 sequence (P19793 225-462): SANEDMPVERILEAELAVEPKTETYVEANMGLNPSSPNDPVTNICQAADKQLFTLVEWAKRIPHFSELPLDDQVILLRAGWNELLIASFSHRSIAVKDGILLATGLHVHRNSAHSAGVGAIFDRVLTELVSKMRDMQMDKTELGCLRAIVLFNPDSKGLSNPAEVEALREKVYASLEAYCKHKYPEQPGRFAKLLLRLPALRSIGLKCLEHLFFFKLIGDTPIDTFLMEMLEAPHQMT
Source text: To examine whether PA can act as a modulator that activates RXRs in solution, we next performed homogenous time-resolved fluorescence resonance energy transfer (HTRF)-based co-regulator recruitment assays using a peptide derived from steroid receptor co-activator 1 (SRC-1) as established previously. In addition to PA, we also tested the RXR modulator potentials of myristic acid (MA; C14:0; C14H28O2; […]) and stearic acid (SA; C18:0; C18H36O2; […]).
Terbium cryptate as streptavidin conjugate (Cisbio Bioassays, Codolet, France) was used as the fluorescence resonance energy transfer (FRET) donor and stably coupled via an N-terminal biotin to the SRC-1-derived peptide (biotin-[…]) (Eurogentec Deutschland GmbH, Cologne, Germany), which contains the co-activator consensus motif, LxxLL. Recombinant RXRα LBD fused to N-terminal superfolder green fluorescent protein (sGFP) served as the FRET acceptor. Coactivator recruitment by the RXRα LBD brings FRET donor and acceptor into close proximity, resulting in a gain in the FRET signal as indicator for binding. […] Fluorescence intensities (FI) at 520 nm (acceptor) and 620 nm (donor reference) after excitation at 340 nm were recorded on a Tecan Spark luminometer equipped with enhanced fluorescence module (Tecan) after 2 h of incubation at room temperature. To obtain dimensionless HTRF, FI520 nm was divided by FI620 nm and multiplied with 10,000. The recruitment of the SRC-1-derived peptide to the RXRα LBD was validated with increasing concentrations of SR11237.

[2] = biological target: T2, RXRβ (Homo sapiens, UniProt P28702); assay: Gal4 hybrid reporter gene assay RXRβ; type: cell-based; conditions: HEK293T; at 100 µM concentrations and above
T2 construct: pFA-CMV-hRXRβ-LBD (NR2B2, UniProt entry: P28702-1, aa 294–533); expressed in transfected cells; host or cells: HEK293T
T2 sequence (P28702 294-533): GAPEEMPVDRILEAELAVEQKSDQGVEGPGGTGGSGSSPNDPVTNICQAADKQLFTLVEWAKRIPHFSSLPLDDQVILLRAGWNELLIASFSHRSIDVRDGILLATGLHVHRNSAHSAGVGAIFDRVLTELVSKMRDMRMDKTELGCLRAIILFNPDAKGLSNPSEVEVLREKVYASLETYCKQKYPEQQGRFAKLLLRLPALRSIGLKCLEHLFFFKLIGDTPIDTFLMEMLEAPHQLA
Procedure: (§1) The Gal4 hybrid reporter gene assays for RXRα, RXRβ and RXRγ were performed as described previously using the Gal4-fusion receptor plasmids pFA-CMV-hRXRα-LBD (NR2B1, UniProt entry: P19793, aa 225–462), pFA-CMV-hRXRβ-LBD (NR2B2, UniProt entry: P28702-1, aa 294–533) and pFA-CMV-hRXRγ-LBD (NR2B3, UniProt entry: P48443-1, aa 229–463), which code for the hinge region and LBD of the canonical RXR isoform. pFR-Luc (Stratagene, San Diego, CA, USA) as the reporter plasmid and pRL-SV40 (Promega, Madison, WI, USA) as the internal control were used. HEK293T cells were grown in DMEM high-glucose medium (supplemented with 10% fetal calf serum (FCS), sodium pyruvate (1 mM), penicillin (100 U/mL) and streptomycin (100 μg/mL)) at 37 °C and 5% CO2, and seeded in 96-well plates (3.0 × 10^4 cells/well) on the day before transfection. Right before transfection, medium was changed to Opti-MEM without supplements and cells were transiently transfected using the Lipofectamine LTX reagent (Invitrogen, Carlsbad, CA, USA) according to the manufacturer’s protocol with pFR-Luc (Stratagene), pRL-SV40 (Promega) and the respective pFA-CMV-hRXR-LBD clone. After 5 h of incubation, medium was changed to Opti-MEM (supplemented with penicillin (100 U/mL) and streptomycin (100 μg/mL)) additionally containing 0.1% DMSO and the respective test compounds or 0.1% DMSO alone as the untreated control. After overnight incubation (12–14 h), cells were assayed for luciferase activity using the Dual-Glo luciferase assay system (Promega) according to the manufacturer’s protocol on a Tecan Spark M10 luminometer (Tecan Deutschland GmbH, Crailsheim, Germany). Each sample was tested in at least three biologically independent repeats in duplicates. Data were normalized for transfection efficiency and cell growth by division of firefly luciferase data by Renilla luciferase data and multiplying by 1000 to obtain relative light units (RLUs). Fold activation denotes the mean RLU of test compounds at a respective concentration divided by the mean RLU of untreated control. […]

[3] = biological target: T3, RXRγ (Homo sapiens, UniProt P48443); assay: Gal4 hybrid reporter gene assay RXRγ; type: cell-based; conditions: HEK293T; at 100 µM concentrations and above
T3 construct: pFA-CMV-hRXRγ-LBD (NR2B3, UniProt entry: P48443-1, aa 229–463); expressed in transfected cells; host or cells: HEK293T
T3 sequence (P48443 229-463): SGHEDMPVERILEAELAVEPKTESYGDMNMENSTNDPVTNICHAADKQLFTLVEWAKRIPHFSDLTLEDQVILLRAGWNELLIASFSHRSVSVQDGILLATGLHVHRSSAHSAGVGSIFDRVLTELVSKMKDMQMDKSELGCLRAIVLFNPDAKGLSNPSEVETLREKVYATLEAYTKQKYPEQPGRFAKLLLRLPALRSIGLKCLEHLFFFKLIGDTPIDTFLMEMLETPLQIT
Procedure: as §1

[4] = cell-free, compound alone, read-out: EC50 SRC-1 recruitment to RXRα
[5] = in the presence of 0.3 µM bexarotene, read-out: EC50 SRC-1 recruitment to RXRα in the presence of 0.3 µM bexarotene

SMILES | EC50 ([1]; EC50 SRC-1 recruitment to RXRα in the presence of 0.3 µM bexarotene, in the presence of 0.3 µM bexarotene) | EC50 [1, 4] | competition with bexarotene in SRC-1 recruitment [1] | RXRβ activation in Gal4 hybrid reporter gene assay [2] | RXRγ activation in Gal4 hybrid reporter gene assay [3] | EC50 [1, 5]
CCCCCCCCCCCCCC(=O)O [MA, myristic acid] | 2.9 µM | 3.2 µM | no competition | activated | activated | 
CCCCCCCCCCCCCCCCCC(=O)O [SA, stearic acid] |  | 19 µM | no competition | activated | activated | 14 µM
CCCCCCCCCCCCCCCC(=O)O [PA, palmitic acid] |  | 6.6 µM | no competition | activated | activated | 3.1 µM
